In PMC5338263, “GS-5734 and its parent nucleoside analog inhibit Filo-, Pneumo-, and Paramyxoviruses” (Scientific Reports, 2017):

How the values were obtained:
Rhabdo = assay: Potency by virus family (Fig. 2), Rhabdo; format: cell-based; settings: read-out: potency class (EC50)
NiV B-2004 [1] = tested on: NiV B-2004
HeV 1996 (Hendra virus) = assay: in vitro; settings: human
Filo (filoviruses) = settings: cited from earlier work
Corona (coronaviruses) = settings: cited from earlier work
SARS-CoV = settings: cited from earlier work
[2] = tested on: recombinant reporter-expressing NiV, EBOV, and Marburg viruses (MARV); assay: microbe, parasite or virus in culture; format: cell-based; settings: Zaire ebolavirus, read-out: EC50 values (range over viruses)
EBOV wt Makona = assay: microbe, parasite or virus in culture; format: cell-based, Ebola virus; settings: Zaire ebolavirus, Huh-7
NiV B-2004 [3] = assay: microbe, parasite or virus in culture; settings: Henipavirus nipahense, HeLa
MV, hPIV3, hMPV, and RSV = assay: organism not typed; format: cell-based; settings: read-out: EC50 values (range over viruses)

Row | Structure (SMILES) | EC50 (Rhabdo) [nM] | EC50 (NiV B-2004 [1]) [nM] | selectivity ratio (HeV 1996 (Hendra virus)) | EC50 (RSV Rec. rgRSV224 (A2)) [nM] | activity in cell-based antiviral assays (Filo (filoviruses)) | activity in cell-based antiviral assays (Corona (coronaviruses)) | antiviral activity (active or not) (SARS-CoV) | EC50 [2] [nM] | EC50 (EBOV wt Makona) [nM] | EC50 (EBOV Rec. Mayinga-GFP) [nM] | EC90 (NiV B-2004 [3]) [nM] | EC50 (MV, hPIV3, hMPV, and RSV) [nM]
1 | CCC(CC)COC(=O)[C@H](C)N[P@](=O)(OC[C@H]1O[C@@](C#N)(c2ccc3c(N)ncnn23)[C@H](O)[C@@H]1O)Oc1ccccc1 [GS-5734] | > 4000 | 32 | 150 | 21 | shown activity | shown activity | – | – | – | – | – | –
2 | N#C[C@@]1(c2ccc3c(N)ncnn23)O[C@H](CO)[C@@H](O)[C@H]1O [Nuc] | – | – | – | – | – | – | shown to have activity | 1000 to 3000 | 1610 ± 420 | 1600 | 2200 | 500 to 2000
